Test results reported in ChEMBL document CHEMBL2440076, “New triarylpyrazoles as broad-spectrum anticancer agents: design, synthesis, and biological evaluation” (Eur J Med Chem, 2013).

Assays:
Format in all cases: functional
MCF7 [1] = test: Growth inhibition of human MCF7 cells assessed as cell growth at 5X10'-7 M after 48 hrs by sulforhodamine B assay; conditions: MCF7, 48 h, read-out: Activity
HCT-116 [2] = test: Growth inhibition of human HCT116 cells assessed as cell growth at 5X10'-5 M after 48 hrs by sulforhodamine B assay; conditions: HCT-116, 48 h, read-out: Activity
786-0 = test: Growth inhibition of human 786-0 cells assessed as cell growth at 5X10'-7 M after 48 hrs by sulforhodamine B assay; conditions: 786-0, 48 h, read-out: Activity
TK-10 [3] = test: Growth inhibition of human TK10 cells assessed as cell growth at 5X10'-5 M after 48 hrs by sulforhodamine B assay; conditions: TK-10, 48 h, read-out: Activity
SNB-75 = test: Growth inhibition of human SNB75 cells assessed as cell growth at 5X10'-7 M after 48 hrs by sulforhodamine B assay; conditions: SNB-75, 48 h, read-out: Activity
U-251 [4] = test: Growth inhibition of human U251 cells assessed as cell growth at 5X10'-5 M after 48 hrs by sulforhodamine B assay; conditions: U-251, 48 h, read-out: Activity
KM12 = test: Growth inhibition of human KM12 cells assessed as cell growth at 10 uM after 48 hrs by sulforhodamine B assay; conditions: KM12, 48 h, read-out: Activity
SF-268 = test: Growth inhibition of human SF268 cells assessed as cell growth at 5X10'-5 M after 48 hrs by sulforhodamine B assay; conditions: SF-268, 48 h, read-out: Activity
A498 = test: Growth inhibition of human A498 cells assessed as cell growth at 10 uM after 48 hrs by sulforhodamine B assay; conditions: A498, 48 h, read-out: Activity
OVCAR-4 = test: Growth inhibition of human OVCAR4 cells assessed as cell growth at 10 uM after 48 hrs by sulforhodamine B assay; conditions: OVCAR-4, 48 h, read-out: Activity
SK-MEL-2 [5] = test: Growth inhibition of human SK-MEL-2 cells after 48 hrs by sulforhodamine B assay; conditions: SK-MEL-2, 48 h
HL-60(TB) = test: Growth inhibition of human HL-60(TB) cells assessed as cell growth at 5X10'-5 M after 48 hrs by sulforhodamine B assay; conditions: HL-60, 48 h, read-out: Activity
UACC-257 = test: Growth inhibition of human UACC257 cells assessed as cell growth at 5X10'-9 M after 48 hrs by sulforhodamine B assay; conditions: UACC-257, 48 h, read-out: Activity
K562 = test: Growth inhibition of human K562 cells after 48 hrs by sulforhodamine B assay; conditions: K562, 48 h; for CC50: read-out: LC50 (the source's name)
Malme-3M = test: Growth inhibition of human MALME-3M cells assessed as cell growth at 10 uM after 48 hrs by sulforhodamine B assay; conditions: read-out: Activity
SR = test: Growth inhibition of human SR cells assessed as cell growth at 5X10'-8 M after 48 hrs by sulforhodamine B assay; conditions: read-out: Activity
HOP-62 = test: Growth inhibition of human HOP62 cells after 48 hrs by sulforhodamine B assay; conditions: HOP-62, 48 h; for CC50: read-out: LC50 (the source's name)
SN12C [6] = test: Growth inhibition of human SN12C cells assessed as cell growth at 10 uM after 48 hrs by sulforhodamine B assay; conditions: read-out: Activity
SK-OV-3 [7] = test: Growth inhibition of human SKOV3 cells assessed as cell growth at 5X10'-7 M after 48 hrs by sulforhodamine B assay; conditions: SK-OV-3, 48 h, read-out: Activity
OVCAR-8 = test: Growth inhibition of human OVCAR8 cells assessed as cell growth at 5X10'-6 M after 48 hrs by sulforhodamine B assay; conditions: OVCAR-8, 48 h, read-out: Activity
HCT-116 [8] = test: Growth inhibition of human HCT116 cells assessed as cell growth at 5X10'-9 M after 48 hrs by sulforhodamine B assay; conditions: HCT-116, 48 h, read-out: Activity
OVCAR-5 = test: Growth inhibition of human OVCAR5 cells assessed as cell growth at 5X10'-7 M after 48 hrs by sulforhodamine B assay; conditions: OVCAR-5, 48 h, read-out: Activity
SN12C [9] = test: Growth inhibition of human SN12C cells assessed as cell growth at 5X10'-5 M after 48 hrs by sulforhodamine B assay; conditions: read-out: Activity
[10] = Growth inhibition of human Hs 578T cells assessed as cell growth at 5X10'-7 M after 48 hrs by sulforhodamine B assay; conditions: read-out: Activity
SK-OV-3 [11] = test: Growth inhibition of human SKOV3 cells after 48 hrs by sulforhodamine B assay; conditions: SK-OV-3, 48 h; for CC50: read-out: LC50 (the source's name)
MCF7 [12] = test: Growth inhibition of human MCF7 cells assessed as cell growth at 5X10'-9 M after 48 hrs by sulforhodamine B assay; conditions: MCF7, 48 h, read-out: Activity
SW-620 = test: Growth inhibition of human SW620 cells assessed as cell growth at 5X10'-6 M after 48 hrs by sulforhodamine B assay; conditions: SW-620, 48 h, read-out: Activity
LOX IMVI = test: Growth inhibition of human LOXIMVI cells after 48 hrs by sulforhodamine B assay
UACC-62 [13] = test: Growth inhibition of human UACC62 cells assessed as cell growth at 5X10'-6 M after 48 hrs by sulforhodamine B assay; conditions: UACC-62, 48 h, read-out: Activity
SK-MEL-2 [14] = test: Growth inhibition of human SK-MEL-2 cells assessed as cell growth at 10 uM after 48 hrs by sulforhodamine B assay; conditions: SK-MEL-2, 48 h, read-out: Activity
SK-MEL-2 [15] = test: Growth inhibition of human SK-MEL-2 cells assessed as cell growth at 5X10'-8 M after 48 hrs by sulforhodamine B assay; conditions: SK-MEL-2, 48 h, read-out: Activity
UACC-62 [16] = test: Growth inhibition of human UACC62 cells after 48 hrs by sulforhodamine B assay; conditions: UACC-62, 48 h
TK-10 [17] = test: Growth inhibition of human TK10 cells assessed as cell growth at 5X10'-9 M after 48 hrs by sulforhodamine B assay; conditions: TK-10, 48 h, read-out: Activity
DU-145 = test: Growth inhibition of human DU145 cells assessed as cell growth at 10 uM after 48 hrs by sulforhodamine B assay; conditions: DU-145, 48 h, read-out: Activity
MOLT-4 = test: Growth inhibition of human MOLT4 cells assessed as cell growth at 5X10'-8 M after 48 hrs by sulforhodamine B assay; conditions: MOLT-4, 48 h, read-out: Activity
U-251 [18] = test: Growth inhibition of human U251 cells assessed as cell growth at 5X10'-7 M after 48 hrs by sulforhodamine B assay; conditions: U-251, 48 h, read-out: Activity
RXF 393 = test: Growth inhibition of human RXF393 cells assessed as cell growth at 10 uM after 48 hrs by sulforhodamine B assay; conditions: RXF 393, 48 h, read-out: Activity

Work on `COc1cc(-c2nn(-c3cccc(NC(=O)Nc4ccc(Cl)c(Cl)c4)c3)cc2-c2ccncc2)ccc1Cl` yielded a growth at 0.5 µM (MCF7 [1]) of 68%, a growth at 50 µM (HCT-116 [2]) of 2% and a growth at 0.5 µM (786-0) of 89%. For the same compound, the growth at 50 µM (TK-10 [3]) was -1%, the growth at 0.5 µM (SNB-75) was 74% and the growth at 50 µM (U-251 [4]) was -49%. It also gave a growth at 10 µM (KM12) of 1.3%, a growth at 50 µM (SF-268) of -5% and a growth at 10 µM (A498) of -6.82%. It also gave a growth at 10 µM (OVCAR-4) of 19.8%, a GI50 (SK-MEL-2 [5]) of 1140 nM and an LC50 (50% lethal concentration) (SK-MEL-2 [5]) of 4.85 µM. It also gave a TGI (SK-MEL-2 [5]) of 2350 nM, a growth at 50 µM (HL-60(TB)) of 3% and a growth at 0.005 µM (UACC-257) of 98%. For the same compound, the GI50 (K562) was 890 nM, the TGI (K562) was over 50 µM and the CC50 (K562) was over 50 µM. The growth at 10 µM (Malme-3M) was -19.9%, the growth at 0.05 µM (SR) was 105% and the GI50 (HOP-62) was 1440 nM. It also gave a TGI (HOP-62) of 4.9 µM, a CC50 (HOP-62) of over 50 µM and a growth at 10 µM (SN12C [6]) of 10.7%. It also gave a growth at 0.5 µM (SK-OV-3 [7]) of 105%, a growth at 5 µM (OVCAR-8) of -12% and a growth at 0.005 µM (HCT-116 [8]) of 105%. It also gave a growth at 0.5 µM (OVCAR-5) of 89%, a growth at 50 µM (SN12C [9]) of 10% and a growth at 0.5 µM [10] of 83%. The GI50 (SK-OV-3 [11]) was 1930 nM, the TGI (SK-OV-3 [11]) was over 50 µM and the CC50 (SK-OV-3 [11]) was over 50 µM. It also gave a growth at 0.005 µM (MCF7 [12]) of 91%, a growth at 5 µM (SW-620) of 11% and a GI50 (LOX IMVI) of 954 nM. The LC50 (LOX IMVI) was over 50 µM, the TGI (LOX IMVI) was 2620 nM and the growth at 5 µM (UACC-62 [13]) was -56%. The growth at 10 µM (SK-MEL-2 [14]) was -44.2%, the growth at 0.05 µM (SK-MEL-2 [15]) was 112% and the GI50 (UACC-62 [16]) was 773 nM. For the same compound, the LC50 (50% lethal concentration) (UACC-62 [16]) was 4.49 µM, the TGI (UACC-62 [16]) was 1860 nM and the growth at 0.005 µM (TK-10 [17]) was 100%. The growth at 10 µM (DU-145) was 20%, the growth at 0.05 µM (MOLT-4) was 113% and the growth at 0.5 µM (U-251 [18]) was 72%. It also gave a growth at 10 µM (RXF 393) of -22.8%.

With `COc1cc(-c2nn(-c3cccc(NC(=O)c4cccc(C(F)(F)F)c4)c3)cc2-c2ccncc2)ccc1Cl` the growth at 0.5 µM (MCF7 [1]) was 81%, the growth at 50 µM (HCT-116 [2]) was 9% and the growth at 0.5 µM (786-0) was 101%. It also gave a growth at 50 µM (TK-10 [3]) of 18%, a growth at 0.5 µM (SNB-75) of 79% and a growth at 50 µM (U-251 [4]) of 3%. The growth at 10 µM (KM12) was 13.4%, the growth at 50 µM (SF-268) was 8% and the growth at 10 µM (A498) was -19%. The growth at 10 µM (OVCAR-4) was 46.5%, the GI50 (SK-MEL-2 [5]) was 1560 nM and the LC50 (50% lethal concentration) (SK-MEL-2 [5]) was over 50 µM. For the same compound, the TGI (SK-MEL-2 [5]) was over 50000 nM, the growth at 50 µM (HL-60(TB)) was 5% and the growth at 0.005 µM (UACC-257) was 105%. It also gave a GI50 (K562) of 1400 nM, a TGI (K562) of over 50 µM and a CC50 (K562) of over 50 µM. For the same compound, the growth at 10 µM (Malme-3M) was 10.1%, the growth at 0.05 µM (SR) was 98% and the TGI (HOP-62) was over 50 µM. The CC50 (HOP-62) was over 50 µM, the growth at 10 µM (SN12C [6]) was 34.4% and the growth at 0.5 µM (SK-OV-3 [7]) was 101%. It also gave a growth at 5 µM (OVCAR-8) of 23%, a growth at 0.005 µM (HCT-116 [8]) of 99% and a growth at 0.5 µM (OVCAR-5) of 85%. It also gave a growth at 50 µM (SN12C [9]) of 24%, a growth at 0.5 µM [10] of 74% and a GI50 (SK-OV-3 [11]) of 2290 nM. It also gave a TGI (SK-OV-3 [11]) of over 50 µM, a CC50 (SK-OV-3 [11]) of over 50 µM and a growth at 0.005 µM (MCF7 [12]) of 94%. The growth at 5 µM (SW-620) was 30%, the GI50 (LOX IMVI) was 1390 nM and the LC50 (LOX IMVI) was over 50 µM. The TGI (LOX IMVI) was over 50000 nM, the growth at 5 µM (UACC-62 [13]) was 27% and the growth at 10 µM (SK-MEL-2 [14]) was -38.6%. The growth at 0.05 µM (SK-MEL-2 [15]) was 97%, the GI50 (UACC-62 [16]) was 1940 nM and the LC50 (50% lethal concentration) (UACC-62 [16]) was over 50 µM. For the same compound, the TGI (UACC-62 [16]) was over 50000 nM, the growth at 0.005 µM (TK-10 [17]) was 95% and the growth at 10 µM (DU-145) was 2.16%. It also gave a growth at 0.05 µM (MOLT-4) of 98%, a growth at 0.5 µM (U-251 [18]) of 88% and a growth at 10 µM (RXF 393) of -42.8%.
